Holding throughout (assay type): physicochemical
Series [1] in a line: Specific gravity of oils and surfactants.
The nature of series [2]: Oil or surfactant adsorption capacity on Sample S1 (ASTM D281 titration). As for the experimental part: Procedure: 2 to 5 g (based on bulk density) of the solid carrier material was placed in a 100 ml beaker and the oil or surfactant was added drop wise from a Burette, while mixing with spatula according to ASTM […]. The addition of oil or surfactant was continued until a thick paste-like mass formation. The addition of oil or surfactant was stopped when the mass appeared to contain excess oil. The Burette reading was recorded when the mass contained no excess oil or surfactant. The adsorption capacity was calculated using the below equation: [formula]

Series [3] is described as follows: Oil release (Tocopherol) from tablets, dissolution with HPLC. The conditions noted are these: at 45 min, from tablets of Tocopherol loaded silica S2, 100 mg Tocopherol per tablet. As for the experimental part:
Oil Release (Tocopherol) from Tablets: The carrier materials used in the following trials was the material designated S2 in Example 1. Tocopherol was the liquid lipid that was loaded on to the silica. Silica S2 was loaded with liquid lipid pursuant to method of Example 8 and was used as the oil loaded carrier component in tablet. Tablets were prepared pursuant to the method in example 10. Tochopherol concentration in the tablet was 100 mg.
Tablets prepared were subjected to dissolution studies pursuant to the method described in Example 8. An aliquot of 2 mL was withdrawn at predetermined time interval and filtered through 0.22μ membrane filter. The dissolution samples were analyzed by using HPLC (Waters UPLC Wavelength: 294 nm Column: Rocket Format, 53×7 mm, 3μ) Mobile Phase: 85% ACN: 10% MeOH: 5% H2O.)

Where [4] appears, read: oil adsorbed on Sample S1 material.

SMILES strings stand for the structures.

In series [1] (oils, Table 2), `Cc1c(C)c2c(c(C)c1O)CCC(C)(CCCC(C)CCCC(C)CCCC(C)C)O2` (racemic) [dl-α-Tocopherol] had a Specific gravity of 0.950 g/mL. This compound showed an Adsorption capacity in series [2] (setting [4]) of 292 g/100 g. Moreover, the Tocopherol release entry in series [3] is on record as “≈ 100%”.

As for `CCCCCCCC/C=C\CCCCCCCC(=O)O` [Oleic acid], in series [1] (oils, Table 2), the Specific gravity was 0.895 g/mL. The compound further displayed an Adsorption capacity in series [2] (setting [4]) of 300 g/100 g.

For the compound `CCOCCOCCO` [Transcutol HP], the Specific gravity in series [1] (surfactants, Table 3) is reported as 0.987 g/mL. Further, the Adsorption capacity in series [2] (surfactant adsorbed on Sample S1 material) is listed as 295 g/100 g.

(Values after patent publication US10660856B2, “Porous silica gel as a carrier for liquid technologies” (W.R. Grace & Co.-Conn., priority 2013, dated 2020).)
